# According to PubChem BioAssay (NCI):
#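 96-well plates; 48 h exposure; 5 concentrations. Endpoints by linear interpolation between flanking doses. Not reached: highest tested concentration assigned. GI50: concentration for 50% inhibition of growth. TGI denotes the concentration required for complete inhibition of growth.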
# Assays:
# Assay in all cases: NCI-60 cell line screen, 48 h
# OVCAR-5 ovarian = test system: OVCAR-5 ovarian
# HOP-62 NSCLC = test system: HOP-62 NSCLC
# UO-31 renal = test system: UO-31 renal
# K-562 leukemia = test system: K-562 leukemia
# SK-OV-3 ovarian = test system: SK-OV-3 ovarian
# MCF7 breast = test system: MCF7 breast
# MOLT-4 leukemia = test system: MOLT-4 leukemia
# NCI-H460 lung = test system: NCI-H460 lung
# CCRF-CEM leukemia = test system: CCRF-CEM leukemia
# OVCAR-8 ovarian = test system: OVCAR-8 ovarian
# HCT-116 colon = test system: HCT-116 colon
# HT29 colon = test system: HT29 colon
# RPMI-8226 leukemia = test system: RPMI-8226 leukemia
# CAKI-1 renal = test system: CAKI-1 renal
# LOX IMVI melanoma = test system: LOX IMVI melanoma
# SF-539 CNS = test system: SF-539 CNS
# SR leukemia = test system: SR leukemia
# UACC-257 melanoma = test system: UACC-257 melanoma
# M14 melanoma = test system: M14 melanoma
# SW-620 colon = test system: SW-620 colon
# NCI-H23 lung = test system: NCI-H23 lung
# MDA-MB-231 breast = test system: MDA-MB-231 breast
# HOP-92 NSCLC = test system: HOP-92 NSCLC
# NCI-H522 lung = test system: NCI-H522 lung
# SK-MEL-5 melanoma = test system: SK-MEL-5 melanoma
# A498 renal = test system: A498 renal
# NCI-H226 lung = test system: NCI-H226 lung
# ACHN renal = test system: ACHN renal
# HS 578T breast = test system: HS 578T breast
# IGROV1 ovarian = test system: IGROV1 ovarian
# SK-MEL-2 melanoma = test system: SK-MEL-2 melanoma
# HL-60(TB) leukemia = test system: HL-60(TB) leukemia
# DU-145 prostate = test system: DU-145 prostate
# SK-MEL-28 melanoma = test system: SK-MEL-28 melanoma
# TK-10 renal = test system: TK-10 renal
# KM12 colon = test system: KM12 colon
# SF-268 CNS = test system: SF-268 CNS
# 786-0 renal = test system: 786-0 renal
# SF-295 CNS = test system: SF-295 CNS
# U251 CNS = test system: U251 CNS
# COLO 205 colon = test system: COLO 205 colon
# HCC-2998 colon = test system: HCC-2998 colon
# PC-3 prostate = test system: PC-3 prostate
# UACC-62 melanoma = test system: UACC-62 melanoma
# T-47D breast = test system: T-47D breast
# OVCAR-4 ovarian = test system: OVCAR-4 ovarian
# MALME-3M melanoma = test system: MALME-3M melanoma
# SNB-19 CNS = test system: SNB-19 CNS
# NCI/ADR-RES ovarian = test system: NCI/ADR-RES ovarian
# A549 NSCLC = test system: A549 NSCLC
# MDA-MB-435 = test system: MDA-MB-435
# SN12C renal = test system: SN12C renal
# HCT-15 colon = test system: HCT-15 colon
# SNB-75 CNS = test system: SNB-75 CNS
# RXF 393 renal = test system: RXF 393 renal
# EKVX NSCLC = test system: EKVX NSCLC
structure (smiles),measurement,setting,value
C=CCn1c(SCC(=O)Nc2ccc(C(=O)/C=C/c3cc(OC)c(OC)c(OC)c3)cc2)nnc1-c1c[nH]c2ccccc12,GI50,OVCAR-5 ovarian,2.06 µM
same,TGI,OVCAR-5 ovarian,4.34 µM
same,GI50,HOP-62 NSCLC,2.06 µM
same,TGI,HOP-62 NSCLC,5.22 µM
same,GI50,UO-31 renal,1.63 µM
same,TGI,UO-31 renal,4.77 µM
same,GI50,K-562 leukemia,0.991 µM
same,TGI,K-562 leukemia,> 100 µM
same,GI50,SK-OV-3 ovarian,4.46 µM
same,TGI,SK-OV-3 ovarian,19.3 µM
same,GI50,MCF7 breast,0.361 µM
same,TGI,MCF7 breast,1.86 µM
same,GI50,MOLT-4 leukemia,2.7 µM
same,TGI,MOLT-4 leukemia,> 100 µM
same,GI50,NCI-H460 lung,3.1 µM
same,TGI,NCI-H460 lung,10.1 µM
same,GI50,CCRF-CEM leukemia,2.24 µM
same,TGI,CCRF-CEM leukemia,> 100 µM
same,GI50,OVCAR-8 ovarian,3.44 µM
same,TGI,OVCAR-8 ovarian,> 100 µM
same,GI50,HCT-116 colon,0.376 µM
same,TGI,HCT-116 colon,1.53 µM
same,GI50,HT29 colon,1.7 µM
same,TGI,HT29 colon,3.3 µM
same,GI50,RPMI-8226 leukemia,0.288 µM
same,TGI,RPMI-8226 leukemia,1.26 µM
same,GI50,CAKI-1 renal,3.35 µM
same,TGI,CAKI-1 renal,> 100 µM
same,GI50,LOX IMVI melanoma,0.904 µM
same,TGI,LOX IMVI melanoma,2.34 µM
same,GI50,SF-539 CNS,1.81 µM
same,TGI,SF-539 CNS,3.64 µM
same,GI50,SR leukemia,0.522 µM
same,TGI,SR leukemia,> 100 µM
same,GI50,UACC-257 melanoma,3.5 µM
same,TGI,UACC-257 melanoma,19.8 µM
same,GI50,M14 melanoma,2.66 µM
same,TGI,M14 melanoma,8.39 µM
same,GI50,SW-620 colon,2.08 µM
same,TGI,SW-620 colon,5.85 µM
same,GI50,NCI-H23 lung,1.85 µM
same,TGI,NCI-H23 lung,4.16 µM
same,GI50,MDA-MB-231 breast,5.58 µM
same,TGI,MDA-MB-231 breast,> 100 µM
same,GI50,HOP-92 NSCLC,4.24 µM
same,TGI,HOP-92 NSCLC,> 100 µM
same,GI50,NCI-H522 lung,2.15 µM
same,TGI,NCI-H522 lung,4.99 µM
same,GI50,SK-MEL-5 melanoma,3.52 µM
same,TGI,SK-MEL-5 melanoma,13.5 µM
same,GI50,A498 renal,1.5 µM
same,TGI,A498 renal,2.92 µM
same,GI50,NCI-H226 lung,2.56 µM
same,TGI,NCI-H226 lung,56.8 µM
same,GI50,ACHN renal,1.97 µM
same,TGI,ACHN renal,4.33 µM
same,GI50,HS 578T breast,4.35 µM
same,TGI,HS 578T breast,> 100 µM
same,GI50,IGROV1 ovarian,1.6 µM
same,TGI,IGROV1 ovarian,4.06 µM
same,GI50,SK-MEL-2 melanoma,2.25 µM
same,TGI,SK-MEL-2 melanoma,6.38 µM
same,GI50,HL-60(TB) leukemia,2.18 µM
same,TGI,HL-60(TB) leukemia,8.04 µM
same,GI50,DU-145 prostate,3.19 µM
same,TGI,DU-145 prostate,10.8 µM
same,GI50,SK-MEL-28 melanoma,2.32 µM
same,TGI,SK-MEL-28 melanoma,5.61 µM
same,GI50,TK-10 renal,5.8 µM
same,TGI,TK-10 renal,34.3 µM
same,GI50,KM12 colon,1.48 µM
same,TGI,KM12 colon,2.98 µM
same,GI50,SF-268 CNS,3.43 µM
same,TGI,SF-268 CNS,18.6 µM
same,GI50,786-0 renal,1.84 µM
same,TGI,786-0 renal,3.43 µM
same,GI50,SF-295 CNS,3.14 µM
same,TGI,SF-295 CNS,11.6 µM
same,GI50,U251 CNS,1.61 µM
same,TGI,U251 CNS,3.64 µM
same,GI50,COLO 205 colon,1.87 µM
same,TGI,COLO 205 colon,4.07 µM
same,GI50,HCC-2998 colon,1.65 µM
same,TGI,HCC-2998 colon,3.09 µM
same,GI50,PC-3 prostate,3.09 µM
same,TGI,PC-3 prostate,> 100 µM
same,GI50,UACC-62 melanoma,2.55 µM
same,TGI,UACC-62 melanoma,10.4 µM
same,GI50,T-47D breast,2.42 µM
same,TGI,T-47D breast,> 100 µM
same,GI50,OVCAR-4 ovarian,2.79 µM
same,TGI,OVCAR-4 ovarian,8.91 µM
same,GI50,MALME-3M melanoma,3.2 µM
same,TGI,MALME-3M melanoma,24.9 µM
same,GI50,SNB-19 CNS,3 µM
same,TGI,SNB-19 CNS,13.3 µM
same,GI50,NCI/ADR-RES ovarian,> 100 µM
same,TGI,NCI/ADR-RES ovarian,> 100 µM
same,GI50,A549 NSCLC,3.04 µM
same,TGI,A549 NSCLC,12.3 µM
same,GI50,MDA-MB-435,1.82 µM
same,TGI,MDA-MB-435,4.76 µM
same,GI50,SN12C renal,3.71 µM
same,TGI,SN12C renal,> 100 µM
same,GI50,HCT-15 colon,2.08 µM
same,TGI,HCT-15 colon,11.1 µM
same,GI50,SNB-75 CNS,3.5 µM
same,TGI,SNB-75 CNS,17.3 µM
same,GI50,RXF 393 renal,1.53 µM
same,TGI,RXF 393 renal,3.34 µM
same,GI50,EKVX NSCLC,3.69 µM
same,TGI,EKVX NSCLC,> 100 µM
